Our source for the T/C values is PubChem BioAssay AID290 (DTP/NCI, 2004).

“And” between values parts separate entries of the source, which are not always exact repeats. Equal entries are not always repeated. Records with an inconclusive call do not appear.

The subject of the test is mice, P1798 lymphosarcoma sc, survival or tumor weight T/C. The test can be described thus: NCI In Vivo Anticancer Drug Screen. Data for tumor model P1798 Lymphosarcoma (subcutaneous) in unknown mice. The procedure: The antitumor activity of compounds was measured in mice bearing transplantable tumors. Survival or tumor size were measured and the results are expressed as the measurement made in the treated group (T) divided by the measurement made in the vehicle treated control group (C). The tumor model used in this assay is P1798 Lymphosarcoma (subcutaneous) in unknown mice

The mark [1] stands for this setting: endpoint: mean tumor weight, dose: 25.0 mg/kg/injection, schedule: Q01DX010 (ip), vehicle: carboxymethylcellulose (CMC), higher = larger tumour.

Take `O=P1(N(CCCl)CCCl)NCCCO1` (stereo not given): the T/C (endpoint: mean tumor weight, dose: 6.3 mg/kg/injection, schedule: Q01DX010 (ip), vehicle: saline, higher = larger tumour) was 113 % of control and 107 % of control; the T/C (endpoint: mean tumor weight, dose: 13.0 mg/kg/injection, schedule: Q01DX011 (ip), vehicle: saline, higher = larger tumour) is 86 % of control; the T/C (endpoint: mean tumor weight, dose: 26.5 mg/kg/injection, schedule: Q01DX011 (ip), vehicle: saline, higher = larger tumour) was 121 % of control; the T/C (endpoint: mean tumor weight, dose: 40.0 mg/kg/injection, schedule: Q01DX011 (ip), vehicle: saline, higher = larger tumour) is 26 % of control; the T/C (endpoint: median survival time, dose: 3.12 mg/kg/injection, schedule: Q01DX010 (ip), vehicle: saline, higher = longer survival) is 80 % of control; the T/C (endpoint: median survival time, dose: 6.25 mg/kg/injection, schedule: Q01DX010 (ip), vehicle: saline, higher = longer survival) is 97 % of control. Further, the T/C is, setting by setting: (endpoint: median survival time, dose: 6.3 mg/kg/injection, schedule: Q07DX005 (ip), vehicle: saline, higher = longer survival) 99 % of control; (endpoint: median survival time, dose: 12.5 mg/kg/injection, schedule: Q01DX001 (ip), vehicle: saline, higher = longer survival) 107 % of control; (endpoint: median survival time, dose: 12.5 mg/kg/injection, schedule: Q01DX010 (ip), vehicle: saline, higher = longer survival) 96 % of control and 103 % of control (2×); (endpoint: median survival time, dose: 12.5 mg/kg/injection, schedule: Q07DX005 (ip), vehicle: saline, higher = longer survival) 106 % of control; (endpoint: median survival time, dose: 25.0 mg/kg/injection, schedule: Q01DX001 (ip), vehicle: saline, higher = longer survival) 92 % of control (2×) and 101 % of control; (endpoint: median survival time, dose: 25.0 mg/kg/injection, schedule: Q01DX010 (ip), vehicle: saline, higher = longer survival) 46 % of control and 98 % of control (2×). The T/C runs as follows: (endpoint: median survival time, dose: 25.0 mg/kg/injection, schedule: Q07DX005 (ip), vehicle: saline, higher = longer survival) 103 % of control; (endpoint: median survival time, dose: 50.0 mg/kg/injection, schedule: Q01DX001 (ip), vehicle: saline, higher = longer survival) 97 % of control and 99 % of control (2×); (endpoint: median survival time, dose: 50.0 mg/kg/injection, schedule: Q01DX010 (ip), vehicle: saline, higher = longer survival) 29 % of control and 90 % of control (2×); (endpoint: median survival time, dose: 50.0 mg/kg/injection, schedule: Q07DX005 (ip), vehicle: saline, higher = longer survival) 110 % of control; (endpoint: median survival time, dose: 100.0 mg/kg/injection, schedule: Q01DX001 (ip), vehicle: saline, higher = longer survival) 114 % of control and 100 % of control (2×); (endpoint: median survival time, dose: 100.0 mg/kg/injection, schedule: Q01DX010 (ip), vehicle: saline, higher = longer survival) 29 % of control. The T/C is, setting by setting: (endpoint: median survival time, dose: 100.0 mg/kg/injection, schedule: Q07DX005 (ip), vehicle: saline, higher = longer survival) 95 % of control; (endpoint: median survival time, dose: 200.0 mg/kg/injection, schedule: Q01DX001 (ip), vehicle: saline, higher = longer survival) 107 % of control; (endpoint: median survival time, dose: 200.0 mg/kg/injection, schedule: Q01DX010 (ip), vehicle: saline, higher = longer survival) 25 % of control; (endpoint: median survival time, dose: 400.0 mg/kg/injection, schedule: Q01DX001 (ip), vehicle: saline, higher = longer survival) 29 % of control.

Take `[I][Hg][CH2]C1COC([CH2][Hg][I])CO1` (stereo not given): the T/C runs as follows: (endpoint: mean tumor weight, dose: 1.8 mg/kg/injection, schedule: Q01DX010 (ip), vehicle: carboxymethylcellulose (CMC), higher = larger tumour) 64 % of control; (endpoint: mean tumor weight, dose: 3.75 mg/kg/injection, schedule: Q01DX010 (ip), vehicle: carboxymethylcellulose (CMC), higher = larger tumour) 85 % of control; (endpoint: mean tumor weight, dose: 7.5 mg/kg/injection, schedule: Q01DX010 (ip), vehicle: carboxymethylcellulose (CMC), higher = larger tumour) 81 % of control; (endpoint: mean tumor weight, dose: 30.0 mg/kg/injection, schedule: Q01DX010 (ip), vehicle: carboxymethylcellulose (CMC), higher = larger tumour) 65 % of control.

With `CC1(O)CCC2C3CCC4=CC(=O)CCC4C3CCC21C` (stereo not given), the T/C is 116 % of control (endpoint: mean tumor weight, dose: 75.0 mg/kg/injection, schedule: Q01DX010 (sc), vehicle: steriod suspending solution, higher = larger tumour); 115 % of control (endpoint: mean tumor weight, dose: 150.0 mg/kg/injection, schedule: Q01DX010 (sc), vehicle: steriod suspending solution, higher = larger tumour); 109 % of control (endpoint: mean tumor weight, dose: 300.0 mg/kg/injection, schedule: Q01DX010 (sc), vehicle: steriod suspending solution, higher = larger tumour); 122 % of control (endpoint: mean tumor weight, dose: 600.0 mg/kg/injection, schedule: Q01DX010 (sc), vehicle: steriod suspending solution, higher = larger tumour).

Regarding `Nc1nc2n[nH]nc2c(=O)[nH]1`, the T/C by setting is: (endpoint: mean tumor weight, dose: 50.0 mg/kg/injection, schedule: Q01DX010 (ip), vehicle: other, higher = larger tumour) 67 % of control and 71 % of control and 88 % of control; (endpoint: mean tumor weight, dose: 200.0 mg/kg/injection, schedule: Q01DX010 (ip), vehicle: other, higher = larger tumour) 46 % of control.

As to `S=c1nc[nH]c2nc[nH]c12`, the T/C runs as follows: (endpoint: mean tumor weight, dose: 3.12 mg/kg/injection, schedule: Q01DX010 (ip), vehicle: other, higher = larger tumour) 103 % of control; (endpoint: mean tumor weight, dose: 6.25 mg/kg/injection, schedule: Q01DX010 (ip), vehicle: other, higher = larger tumour) 83 % of control; (endpoint: mean tumor weight, dose: 12.5 mg/kg/injection, schedule: Q01DX010 (ip), vehicle: other, higher = larger tumour) 74 % of control and 77 % of control and 88 % of control; (endpoint: mean tumor weight, dose: 18.7 mg/kg/injection, schedule: Q01DX010 (ip), vehicle: other, higher = larger tumour) 45 % of control; (endpoint: mean tumor weight, dose: 34.0 mg/kg/injection, schedule: Q01DX001 (ip), vehicle: carboxymethylcellulose (CMC), higher = larger tumour) 92 % of control.

`CCCCNc1ncnc2c1cnn2C`: the T/C runs as follows: (endpoint: mean tumor weight, dose: 6.25 mg/kg/injection, schedule: Q01DX010 (ip), vehicle: carboxymethylcellulose (CMC), higher = larger tumour) 63 % of control; (endpoint: mean tumor weight, dose: 12.5 mg/kg/injection, schedule: Q01DX010 (ip), vehicle: carboxymethylcellulose (CMC), higher = larger tumour) 97 % of control; under setting [1], 57 % of control.

Take `CN(C)/N=N/c1nc[nH]c1C(N)=O`: the T/C by setting is: (endpoint: mean tumor weight, dose: 75.0 mg/kg/injection, schedule: Q01DX015 (ip), vehicle: carboxymethylcellulose (CMC), higher = larger tumour) 73 % of control; (endpoint: mean tumor weight, dose: 100.0 mg/kg/injection, schedule: Q01DX015 (ip), vehicle: carboxymethylcellulose (CMC), higher = larger tumour) 69 % of control; (endpoint: mean tumor weight, dose: 125.0 mg/kg/injection, schedule: Q01DX015 (ip), vehicle: carboxymethylcellulose (CMC), higher = larger tumour) 57 % of control; (endpoint: mean tumor weight, dose: 150.0 mg/kg/injection, schedule: Q01DX015 (ip), vehicle: carboxymethylcellulose (CMC), higher = larger tumour) 52 % of control.

Turning to `CC/C(=C(/CC)c1ccc(O)cc1)c1ccc(O)cc1`, the T/C by setting is: (endpoint: mean tumor weight, dose: 62.5 mg/kg/injection, schedule: Q01DX010 (sc), vehicle: steriod suspending solution, higher = larger tumour) 64 % of control; (endpoint: mean tumor weight, dose: 125.0 mg/kg/injection, schedule: Q01DX010 (sc), vehicle: steriod suspending solution, higher = larger tumour) 83 % of control; (endpoint: mean tumor weight, dose: 500.0 mg/kg/injection, schedule: Q01DX010 (sc), vehicle: steriod suspending solution, higher = larger tumour) 39 % of control.

In the case of `COC1=C(N)C(=O)c2nc(-c3nc(C(=O)O)c(C)c(-c4ccc(OC)c(OC)c4O)c3N)ccc2C1=O`, the T/C runs as follows: (endpoint: mean tumor weight, dose: 0.05 mg/kg/injection, schedule: Q01DX010 (ip), vehicle: other, higher = larger tumour) 65 % of control; (endpoint: mean tumor weight, dose: 0.1 mg/kg/injection, schedule: Q01DX010 (ip), vehicle: other, higher = larger tumour) 39 % of control.

Consider `N#CCSc1ncnc2nc[nH]c12`, for which the T/C runs as follows: under setting [1], 49 % of control; (endpoint: mean tumor weight, dose: 50.0 mg/kg/injection, schedule: Q01DX010 (ip), vehicle: carboxymethylcellulose (CMC), higher = larger tumour) 46 % of control.

For the molecule `N=[N+]=CC(=O)OCC(N)C(=O)O` (stereo not given), the T/C was 98 % of control (endpoint: mean tumor weight, dose: 1.25 mg/kg/injection, schedule: Q01DX010 (ip), vehicle: saline, higher = larger tumour); 56 % of control (endpoint: mean tumor weight, dose: 2.5 mg/kg/injection, schedule: Q01DX010 (ip), vehicle: saline, higher = larger tumour); 17 % of control and 24 % of control (endpoint: mean tumor weight, dose: 5.0 mg/kg/injection, schedule: Q01DX010 (ip), vehicle: saline, higher = larger tumour).

As to `CN(/N=N/N(C)c1ccccc1)c1ccccc1`, the T/C reads like this: (endpoint: mean tumor weight, dose: 15.6 mg/kg/injection, schedule: Q01DX010 (ip), vehicle: carboxymethylcellulose (CMC), higher = larger tumour) 59 % of control; (endpoint: mean tumor weight, dose: 31.3 mg/kg/injection, schedule: Q01DX010 (ip), vehicle: carboxymethylcellulose (CMC), higher = larger tumour) 44 % of control; (endpoint: mean tumor weight, dose: 62.5 mg/kg/injection, schedule: Q01DX010 (ip), vehicle: carboxymethylcellulose (CMC), higher = larger tumour) 39 % of control; (endpoint: mean tumor weight, dose: 125.0 mg/kg/injection, schedule: Q01DX010 (ip), vehicle: carboxymethylcellulose (CMC), higher = larger tumour) 58 % of control.

`CC(CCC(C)OS(C)(=O)=O)OS(C)(=O)=O` (stereo not given): the T/C is, setting by setting: (endpoint: mean tumor weight, dose: 5.0 mg/kg/injection, schedule: Q01DX010 (ip), vehicle: carboxymethylcellulose (CMC), higher = larger tumour) 72 % of control; (endpoint: mean tumor weight, dose: 10.0 mg/kg/injection, schedule: Q01DX010 (ip), vehicle: carboxymethylcellulose (CMC), higher = larger tumour) 93 % of control; (endpoint: mean tumor weight, dose: 20.0 mg/kg/injection, schedule: Q01DX010 (ip), vehicle: carboxymethylcellulose (CMC), higher = larger tumour) 102 % of control; (endpoint: mean tumor weight, dose: 40.0 mg/kg/injection, schedule: Q01DX010 (ip), vehicle: carboxymethylcellulose (CMC), higher = larger tumour) 83 % of control.

In the case of `CC12C=CC(=O)C=C1CCC1C3CCC(O)(C(=O)CO)C3(C)CC(O)C12F` (stereo not given), the T/C (endpoint: mean tumor weight, dose: 3.0 mg/kg/injection, schedule: Q01DX010 (sc), vehicle: steriod suspending solution, higher = larger tumour) was 85 % of control; the T/C (endpoint: mean tumor weight, dose: 6.0 mg/kg/injection, schedule: Q01DX010 (sc), vehicle: steriod suspending solution, higher = larger tumour) is 58 % of control; the T/C (endpoint: mean tumor weight, dose: 12.0 mg/kg/injection, schedule: Q01DX010 (sc), vehicle: steriod suspending solution, higher = larger tumour) was 56 % of control.
